According to patent US6699836B2 (priority 1999, dated 2004):
Values after ≈ are worked out from the molar mass of the structure shown. Where two headings read alike, the source gives them in different places.

Experiments:
Assay in all cases: MIC determination in BHI broth microdilution
Format in all cases: cell-based
[1] = system: E. coli BAS 849; conditions: E. coli BAS849; BHI with 0.1% casamino acids, 18 hours at 37° C., OD600 ≧90% inhibition
Procedure: (§1) In the Table below, MIC (minimum inhibitory concentration) values of certain compounds of the present invention are provided for the bacterial strains E. faecalis ATCC 29212; E. faecalis CL4877; E. faecium ATCC 49624; E. faecium CL4931; S. aures ATCC 29213; S. aureus ATCC 33591; and E. coli BAS 849. The MICs of the test compounds were determined using bacteria grown in brain heart infusion media (BHI) supplemented with 0.1% casamino acids. Logarithmically growing cells were diluted to approximately 5×10^5 CFU/ml and subjected to test compounds solubilized and serially diluted with DMSO. A 5% final DMSO concentration had no effect on cell viability or killing. After 18 hours at 37° C., the OD600 was determined by reading the ninety-six well microtiter plates on a microplate reader. For a given concentration, an MIC determination was made if: […]

[2] = system: S. aureus ATCC 33591
Procedure: as §1

[3] = system: E. faecium ATCC 49624
Procedure: (§2) The MICs of the test compounds were determined using bacteria grown in brain heart infusion media (BHI) supplemented with 0.1% casamino acids. Logarithmically growing cells were diluted to approximately 5×10^5 CFU/ml and subjected to test compounds solubilized and serially diluted with DMSO. […] After 18 hours at 37° C., the OD600 was determined by reading the ninety-six well microtiter plates on a microplate reader. For a given concentration, an MIC determination was made if: […]

[4] = system: E. faecalis CL4877
Procedure: as §2

[5] = system: S. aureus ATCC29213
Procedure: as §2

[6] = system: E. faecalis ATCC 29212
Procedure: as §2

[7] = system: E. faecium CL4931
Procedure: as §2

[8] = S. aureus ATCC33591, BHI with 0.1% casamino acids, 18 hours at 37° C., OD600 ≧90% inhibition
[9] = E. faecium ATCC49624, BHI with 0.1% casamino acids, 18 hours at 37° C., OD600 ≧90% inhibition
[10] = E. faecalis CL4877, BHI with 0.1% casamino acids, 18 hours at 37° C., OD600 ≧90% inhibition
[11] = S. aureus ATCC29213, BHI with 0.1% casamino acids, 18 hours at 37° C., OD600 ≧90% inhibition
[12] = E. faecalis ATCC29212, BHI with 0.1% casamino acids, 18 hours at 37° C., OD600 ≧90% inhibition
[13] = E. faecium CL4931, BHI with 0.1% casamino acids, 18 hours at 37° C., OD600 ≧90% inhibition
[14] = Staphylococcus aureus, ATCC33591, 18 h
[15] = Enterococcus faecium, ATCC49624, 18 h, read-out: MIC
[16] = Enterococcus faecalis, CL4877, 18 h, read-out: MIC
[17] = Staphylococcus aureus, ATCC29213, 18 h, read-out: MIC
[18] = Enterococcus faecalis, ATCC29212, 18 h, read-out: MIC
[19] = Enterococcus faecium, CL4931, 18 h, read-out: MIC
[20] = Enterococcus faecium, ATCC49624, 18 h
[21] = Enterococcus faecalis, CL4877, 18 h
[22] = Staphylococcus aureus, ATCC29213, 18 h
[23] = Enterococcus faecalis, ATCC29212, 18 h
[24] = Enterococcus faecium, CL4931, 18 h

Compound “6′-amino-3,4- dichloro- benzyloxylben zyl- vancomycin putrescine amide [TS0216]” has an MIC [1] of 3.12 µg/mL, an MIC [2, 8] of 3.12 µg/mL and an MIC [3, 9] of 3.12 µg/mL. It also gave an MIC [4, 10] of 3.12 µg/mL, an MIC [5, 11] of 3.12 µg/mL and an MIC [6, 12] of 1.56 µg/mL. For the same compound, the MIC [7, 13] was 6.25 µg/mL.
Work on “6′-amino- chlorobiphenyl methyl- vancomycin putrescine amide [TS0217]” yielded an MIC [1] of 3.12 µg/mL, an MIC [2, 8] of 3.12 µg/mL and an MIC [3, 9] of 1.56 µg/mL. For the same compound, the MIC [4, 10] was 6.25 µg/mL, the MIC [5, 11] was 1.56 µg/mL and the MIC [6, 12] was 1.56 µg/mL. The MIC [7, 13] was 12.5 µg/mL.
For “6′-azido-3,4- dichloro- benzyloxyben zyl- vancomycin putrescine amide [TS0220]”, the MIC [2, 8] was 3.1250 µg/mL, the MIC [3, 9] was 0.7813 µg/mL and the MIC [4, 10] was 1.5625 µg/mL. For the same compound, the MIC [5, 11] was 1.5625 µg/mL, the MIC [6, 12] was 1.5625 µg/mL and the MIC [7, 13] was 3.1250 µg/mL.
`CN[C@H](CC(C)C)C(=O)N[C@H]1C(=O)N[C@@H](CC(N)=O)C(=O)N[C@H]2C(=O)N[C@H]3C(=O)N[C@H](C(=O)N[C@H](C(=O)O)c4cc(O)cc(O)c4-c4cc3ccc4O)[C@H](O)c3ccc(c(Cl)c3)Oc3cc2cc(c3O[C@@H]2O[C@H](CO)[C@@H](O)[C@H](O)[C@H]2O[C@H]2C[C@](C)(N)[C@H](O)[C@H](C)O2)Oc2ccc(cc2Cl)[C@H]1O` [EXT0002, vancomycin, reference compound] showed an MIC [1] of 0.78 µg/mL (≈ 0.538 µM), an MIC [2, 8] of 0.78 to 3.12 µg/mL and an MIC [3, 9] of 0.25 to 0.39 µg/mL. For the same compound, the MIC [4, 10] was over 25 µg/mL, the MIC [5, 11] was 1.56 µg/mL (≈ 1.08 µM) and the MIC [6, 12] was 1.56 to 3.12 µg/mL. The MIC [7, 13] was over 25 µg/mL.
`CN[C@H](CC(C)C)C(=O)N[C@H]1C(=O)N[C@@H](CC(N)=O)C(=O)N[C@H]2C(=O)N[C@H]3C(=O)N[C@H](C(=O)N[C@@H](C(=O)NCCCCN)c4cc(O)cc(O)c4-c4cc3ccc4O)[C@H](O)c3ccc(c(Cl)c3)Oc3cc2cc(c3OC2OC(CO)C(O)C(O)C2OC2CC(C)(NCc3ccc(-c4ccc(Cl)cc4)cc3)C(O)C(C)O2)Oc2ccc(cc2Cl)[C@H]1O` (stereo partly drawn) [TS0221, chlorobipheny lmethyl- vancomycin putrescine amide] showed an MIC [2, 14] of 0.781 µg/mL (≈ 0.454 µM), an MIC [3, 15] of 0.25 µg/mL (≈ 0.145 µM) and an MIC [4, 16] of 12.5 µg/mL (≈ 7.27 µM). The MIC [5, 17] was 1.56 µg/mL (≈ 0.908 µM), the MIC [6, 18] was 1.56 µg/mL (≈ 0.908 µM) and the MIC [7, 19] was 6.25 µg/mL (≈ 3.63 µM).
`CN[C@H](CC(C)C)C(=O)N[C@H]1C(=O)N[C@@H](CC(N)=O)C(=O)N[C@H]2C(=O)NC3C(=O)N[C@H](C(=O)N[C@@H](C(=O)NCCCCN)c4cc(O)cc(O)c4-c4cc3ccc4O)[C@H](O)c3ccc(c(Cl)c3)Oc3cc2cc(c3OC2OC(CN=[N+]=[N-])C(O)C(O)C2OC2CC(C)(NCc3ccc(-c4ccc(Cl)cc4)cc3)C(O)C(C)O2)Oc2ccc(cc2Cl)[C@H]1O` (stereo partly drawn) [TS0222] was tested, and the MIC [2, 14] was 3.12 µg/mL (≈ 1.79 µM), the MIC [3, 15] was 0.25 µg/mL (≈ 0.143 µM) and the MIC [4, 16] was 3.12 µg/mL (≈ 1.79 µM). For the same compound, the MIC [5, 17] was 1.56 µg/mL (≈ 0.895 µM), the MIC [6, 18] was 0.781 µg/mL (≈ 0.448 µM) and the MIC [7, 19] was 3.12 µg/mL (≈ 1.79 µM).
Work on `CN[C@H](CC(C)C)C(=O)N[C@H]1C(=O)N[C@@H](CC(N)=O)C(=O)N[C@H]2C(=O)NC3C(=O)N[C@H](C(=O)N[C@@H](C(=O)NCCN)c4cc(O)cc(O)c4-c4cc3ccc4O)[C@H](O)c3ccc(c(Cl)c3)Oc3cc2cc(c3OC2OC(CN=[N+]=[N-])C(O)C(O)C2OC2CC(C)(NCc3ccc(OCc4ccc(Cl)c(Cl)c4)cc3)C(O)C(C)O2)Oc2ccc(cc2Cl)[C@H]1O` (stereo partly drawn) [TS0256, 6′-azido-3,4-dichlorobenzyl oxylbenzyl-vancomycin 2-aminoethyl amide] yielded an MIC [2, 14] of 1.56 µg/mL (≈ 0.876 µM), an MIC [3, 20] of 0.39 µg/mL (≈ 0.219 µM) and an MIC [4, 21] of 1.56 µg/mL (≈ 0.876 µM). The MIC [5, 22] was 1.56 µg/mL (≈ 0.876 µM), the MIC [6, 23] was 3.12 µg/mL (≈ 1.75 µM) and the MIC [7, 24] was 6.25 µg/mL (≈ 3.51 µM).
Work on `CN[C@H](CC(C)C)C(=O)N[C@H]1C(=O)N[C@@H](CC(N)=O)C(=O)N[C@H]2C(=O)NC3C(=O)N[C@H](C(=O)N[C@@H](C(=O)NCCN)c4cc(O)cc(O)c4-c4cc3ccc4O)[C@H](O)c3ccc(c(Cl)c3)Oc3cc2cc(c3OC2OC(CN)C(O)C(O)C2OC2CC(C)(NCc3ccc(OCc4ccc(Cl)c(Cl)c4)cc3)C(O)C(C)O2)Oc2ccc(cc2Cl)[C@H]1O` (stereo partly drawn) [TS0258, 6′-amino-3,4-dichlorobenzyl oxylbenzyl-vancomycin 2-aminoethyl amide] yielded an MIC [2, 14] of 12.5 µg/mL (≈ 7.12 µM), an MIC [3, 20] of 3.12 µg/mL (≈ 1.78 µM) and an MIC [4, 21] of 25 µg/mL (≈ 14.2 µM). The MIC [5, 22] was 25 µg/mL (≈ 14.2 µM), the MIC [6, 23] was 12.5 µg/mL (≈ 7.12 µM) and the MIC [7, 24] was 25 µg/mL (≈ 14.2 µM).
“N-methyl, N- chlorobiphenyl methyl-D- leucyl-6′-azido- chlorobiphenyl methyl vancomycin putrescine amide [TS0259]” was tested, and the MIC [2, 8] was 1.56 µg/mL, the MIC [3, 9] was 1.56 µg/mL and the MIC [4, 10] was 12.5 µg/mL. The MIC [5, 11] was 3.12 µg/mL, the MIC [6, 12] was 3.12 µg/mL and the MIC [7, 13] was 6.25 µg/mL.
